Experimental data from the NIST ThermoML archive (doi:10.1021/je400722h).
Numbers after ± are expanded uncertainties.

Assay: excess molar enthalpy (molar enthalpy of mixing); xn = mol fraction of the nth substance listed
Conditions: 308.15 K, 101 kPa, Liquid, Power-compensation calorimetry

Cc1ccccc1Cl [2-chlorotoluene] + C1CCOCC1
Conditions | excess molar enthalpy [kcal/mol]
x1 = 0.0994 | -0.0166 ± 0.000311
x1 = 0.1367 | -0.0226 ± 0.000359
x1 = 0.1982 | -0.0304 ± 0.000478
x1 = 0.2467 | -0.0368 ± 0.000478
x1 = 0.3018 | -0.0425 ± 0.000478
x1 = 0.3537 | -0.0459 ± 0.000478
x1 = 0.3986 | -0.04876 ± 0.000478
x1 = 0.4367 | -0.05115 ± 0.000478
x1 = 0.4825 | -0.0526 ± 0.000717
x1 = 0.5267 | -0.0526 ± 0.000717
x1 = 0.5894 | -0.05115 ± 0.000478
x1 = 0.6276 | -0.05043 ± 0.000478
x1 = 0.6934 | -0.0457 ± 0.000478
x1 = 0.7368 | -0.0418 ± 0.000478
x1 = 0.7864 | -0.037 ± 0.000478

Cc1ccccc1Cl [2-chlorotoluene] + C1COCCO1
Conditions | excess molar enthalpy [kcal/mol]
x1 = 0.0998 | 0.0387 ± 0.000478
x1 = 0.1643 | 0.0583 ± 0.000717
x1 = 0.2095 | 0.0676 ± 0.000717
x1 = 0.2498 | 0.07529 ± 0.000717
x1 = 0.3012 | 0.0827 ± 0.000956
x1 = 0.3567 | 0.0872 ± 0.000956
x1 = 0.4098 | 0.088 ± 0.000956
x1 = 0.4597 | 0.0877 ± 0.000956
x1 = 0.5088 | 0.0851 ± 0.000956
x1 = 0.5563 | 0.08078 ± 0.000717
x1 = 0.6019 | 0.07529 ± 0.000717
x1 = 0.6532 | 0.0672 ± 0.000717
x1 = 0.7067 | 0.0588 ± 0.000717
x1 = 0.7538 | 0.04924 ± 0.000478
x1 = 0.8093 | 0.0382 ± 0.000478
x1 = 0.8498 | 0.0299 ± 0.000478
x1 = 0.8932 | 0.0209 ± 0.000359
x1 = 0.9265 | 0.0144 ± 0.000311

Cc1ccccc1Cl [2-chlorotoluene] + C1COCO1
Conditions | excess molar enthalpy [kcal/mol]
x1 = 0.0945 | 0.0361 ± 0.000478
x1 = 0.1378 | 0.05043 ± 0.000478
x1 = 0.1987 | 0.066 ± 0.000717
x1 = 0.2396 | 0.07481 ± 0.000717
x1 = 0.2914 | 0.0841 ± 0.000956
x1 = 0.3467 | 0.0899 ± 0.000956
x1 = 0.3962 | 0.0937 ± 0.000956
x1 = 0.4532 | 0.0956 ± 0.000956
x1 = 0.4991 | 0.0939 ± 0.000956
x1 = 0.5432 | 0.0915 ± 0.000956
x1 = 0.5899 | 0.088 ± 0.000956
x1 = 0.6329 | 0.08198 ± 0.000717
x1 = 0.6923 | 0.07337 ± 0.000717
x1 = 0.7321 | 0.065 ± 0.000717
x1 = 0.8021 | 0.05043 ± 0.000478
x1 = 0.8492 | 0.0392 ± 0.000478
x1 = 0.8912 | 0.0292 ± 0.000478
x1 = 0.9319 | 0.0186 ± 0.000335
